Experimental findings from US20250206729A1, “DUAL RAF AND TUBULIN INHIBITORS AND METHODS OF USE THEREOF” (Deciphera Pharmaceuticals, LLC, priority 2023, published 2025) are described below.

Test [1] has as its target T1, B-Raf kinase (SEQ ID NO: 1) (Homo sapiens, UniProt P15056).
T1 construct: GST (N); purchased Sigma
Kind of test: Biochemical assay for B-Raf (coupled pyruvate kinase/lactate dehydrogenase). Conditions: 1 mM ATP; read-out: BRAF (inhibition of biochemical activity, IC50).

For test [2], the target named is T2, C-Raf kinase (SEQ ID NO: 2) (Homo sapiens, UniProt P04049, Y340D/Y341D).
T2 construct: C-Raf residues 306-end; Y340D, Y341D with N-; GST (N); purchased Sigma
Description: Biochemical assay for C-Raf (coupled pyruvate kinase/lactate dehydrogenase). As to conditions: 1 mM ATP; read-out: CRAF (inhibition of biochemical activity, IC50).

For the next test, the system named is MiaPaca-2 cells. Description: MiaPaca-2 cell proliferation assay. It counts as cell-based. As to conditions: Homo sapiens, MIA PaCa-2; 67-72 h incubation, resazurin; read-out: MiaPaca-2 (inhibition of cell proliferation, IC50). The procedure: Miapaca-2 cells (catalog #CRL-1420) are obtained from the American Type Culture Collect (ATTC, Manassas, VA). Briefly, cells were grown in DMEM supplemented with 10% characterized fetal bovine serum (Invitrogen, Carlsbad, CA), 2.5% New Zealand sourced horse serum and 1% Penicillin/Streptomycin/L-Glutamine at 37° C., 5% CO2, and 95% humidity. Cells are expanded until reaching 70-95% confluency at which point they are sub-cultured or harvested for assay use. A serial dilution of test compound is dispensed into a 384-well black clear bottom plate in triplicate. Seven hundred fifty cells are added per well in 50 μL complete growth medium in the 384-well plate. Plates are incubated for 67-72 h at 37° C., 5% CO2, and 95% humidity. At the end of the incubation, 10 μL of a 440 μM solution of resazurin (Sigma, St. Louis, MO) in PBS is added to each well of the plate and plates are incubated for an additional 5-6 h at 37° C., 5% CO2, and 95% humidity. Plates are read on a Synergy2 or equivalent reader (Biotek, Winooski VT) using an excitation of 540 nm and an emission of 600 nm. Data is analyzed using Prism software (GraphPad, San Diego, CA) to calculate IC50 values.
(In general: Resazurin is reduced to fluorescent resorufin, in cell work by metabolically active cells.)

The test system of a further test is HCT-116 cells. Kind of test: HCT-116 cell proliferation assay. It is filed as cell-based. Conditions: Homo sapiens, HCT-116; 67 to 72 h incubation, resazurin; read-out: HCT-116 (inhibition of cell proliferation, IC50). The protocol: HCT-116 cells (catalog #CCL-247) are obtained from the American Type Culture Collect (ATCC, Manassas, VA). Briefly, cells are grown in McCoy's 5A supplemented with 10% characterized fetal bovine serum (Invitrogen, Carlsbad, CA) and 1% Penicillin/Streptomycin/L-Glutamine at 37° C., 5% CO2, and 95% humidity. Cells are expanded until reaching 70-95% confluency at which point they are sub-cultured or harvested for assay use. A serial dilution of test compound is dispensed into a 384-well black clear bottom plate in triplicate. 375 cells are added per well in 50 μL complete growth medium in the 384-well plate. Plates are incubated for 67 to 72 h at 37° C., 5% CO2, and 95% humidity. At the end of the incubation, 40 μL of a […] solution of resazurin (Sigma, St. Louis, MO) in PBS is added to each well of the plate and plates are incubated for an additional 4 to 5 h at 37° C., 5% CO2, and 95% humidity. Plates are read on a Synergy2 or equivalent reader (Biotek, Winooski, VT) using an excitation of 540 nm and an emission of 600 nm. Data is analyzed using Prism software (Graphpad, San Diego, CA) to calculate IC50 values.

The subject of the next test is HPAF-II cells. Kind of test: HPAF-II cell proliferation assay. Conditions: Homo sapiens, HPAF-II; 115 to 120 h incubation, resazurin; read-out: HPAF-II (inhibition of cell proliferation, IC50). It is filed as cell-based. The protocol: (§1) HPAF-II cells (catalog #CRL-1997) are obtained from the American Type Culture Collect (ATCC, Manassas, VA). Briefly, cells are grown in Minimum Essential Media supplemented with 10% characterized fetal bovine serum (Invitrogen, Carlsbad, CA) and 1% Penicillin/Streptomycin/L-Glutamine at 37° C., 5% CO2, and 95% humidity. Cells are expanded until reaching 70-95% confluency at which point they are sub-cultured or harvested for assay use. A serial dilution of test compound is dispensed into a 384-well black clear bottom plate in triplicate. 750 cells are added per well in 50 μL complete growth medium in the 384-well plate. Plates are incubated for 115 to 120 h at 37° C., 5% CO2, and 95% humidity. At the end of the incubation, 40 μL of a […] solution of resazurin (Sigma, St. Louis, MO) in PBS is added to each well of the plate and plates are incubated for an additional 18 to 24 h at 37° C., 5% CO2, and 95% humidity. Plates are read on a Synergy2 or equivalent reader (Biotek, Winooski, VT) using an excitation of 540 nm and an emission of 600 nm. Data is analyzed using Prism software (Graphpad, San Diego, CA) to calculate IC50 values.

The test system of the next test is Pa16c cells. Kind of test: Pa16c cell proliferation assay. Conditions: 67 to 72 h incubation, resazurin; read-out: Pa16c (inhibition of cell proliferation, IC50). It counts as cell-based. The protocol: as §1, with “Pa16c” for “HPAF-II”, “cells” for “cells (catalog #CRL-1997)”, “Dr. Channing Der, University of North Carolina at Chapel Hill.” for “the American Type Culture Collect (ATCC, Manassas, VA).”, “Dulbecco's Modified Eagle Medium” for “Minimum Essential Media”, “67” for “115”, “72” for “120”

T2 sequence (P04049 307-648 Y340D/Y341D): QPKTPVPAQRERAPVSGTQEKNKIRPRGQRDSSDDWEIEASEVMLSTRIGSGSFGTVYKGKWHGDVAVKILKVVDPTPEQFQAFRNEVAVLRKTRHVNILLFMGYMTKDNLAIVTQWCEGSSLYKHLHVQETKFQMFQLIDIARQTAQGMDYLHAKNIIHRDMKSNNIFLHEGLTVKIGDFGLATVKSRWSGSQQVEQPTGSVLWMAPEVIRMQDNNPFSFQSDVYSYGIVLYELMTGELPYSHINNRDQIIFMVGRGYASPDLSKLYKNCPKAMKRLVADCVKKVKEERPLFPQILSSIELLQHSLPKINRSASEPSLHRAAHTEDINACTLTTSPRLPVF
T1 sequence (P15056 416-766): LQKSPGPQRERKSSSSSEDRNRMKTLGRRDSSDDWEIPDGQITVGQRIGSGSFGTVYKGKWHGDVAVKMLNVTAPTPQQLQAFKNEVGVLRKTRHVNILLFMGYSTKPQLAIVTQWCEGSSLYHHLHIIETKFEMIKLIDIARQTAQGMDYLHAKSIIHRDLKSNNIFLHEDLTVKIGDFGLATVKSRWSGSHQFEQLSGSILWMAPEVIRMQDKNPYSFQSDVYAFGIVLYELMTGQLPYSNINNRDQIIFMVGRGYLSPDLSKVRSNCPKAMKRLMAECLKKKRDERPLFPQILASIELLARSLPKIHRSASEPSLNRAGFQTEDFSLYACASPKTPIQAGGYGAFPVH

Take `Cc1ccc(NC(=O)c2cnc(Cl)nc2)cc1-c1cc(N[C@H](C)CO)nc(N2CCOCC2)c1` [Example 38]: the IC50 was 1000 to 10000 nM in test [1]; 500 to 1000 nM in test [2]; 1000 to 10000 nM with MiaPaca-2 cells; 1000 to 10000 nM in the test with HCT-116 cells; 1000 to 10000 nM in the test with HPAF-II cells; 1000 to 10000 nM with Pa16c cells.

`Cc1ccc(NC(=O)c2cc(C(C)C)cnn2)cc1-c1cc(OCCO)nc(N2CCOCC2)c1` [Example 39]: the IC50 in test [1] was less than 100 nM; in test [2], less than 100 nM; with MiaPaca-2 cells, 100 to 500 nM; in the test on HCT-116 cells it was less than 100 nM; in the test with HPAF-II cells, 100 to 500 nM; in the test with Pa16c cells it was 100 to 500 nM.

In the case of `Cc1ccc(NC(=O)c2cc(C3CC3)cnn2)cc1-c1cc(N2CCOCC2)ncn1` [Example 40], the IC50 in test [1] fell in the range of 100 to 500 nM; in test [2], 500 to 1000 nM; in the test with MiaPaca-2 cells, 1000 to 10000 nM; in the test with HCT-116 cells it was 500 to 1000 nM; in the test on HPAF-II cells it was 500 to 1000 nM; with Pa16c cells, 1000 to 10000 nM.

As to `Cc1ccc(NC(=O)c2cc(C(F)(F)F)cnn2)cc1-c1cccc(N2CCOCC2)c1` [Example 41], the IC50 in test [1] is 100 to 500 nM; in test [2], less than 100 nM; with MiaPaca-2 cells, 100 to 500 nM; with HCT-116 cells it was 100 to 500 nM; in the test on HPAF-II cells, less than 100 nM; with Pa16c cells, 100 to 500 nM.

As to `Cc1cc(-c2cc(NC(=O)c3cc(C4CCC4)cnn3)ccc2C)cc(N2CCOCC2)n1` [Example 42], the IC50 was less than 100 nM in test [1]; less than 100 nM in test [2]; 100 to 500 nM in the test with MiaPaca-2 cells; 100 to 500 nM in the test with HCT-116 cells; 100 to 500 nM in the test on HPAF-II cells; 100 to 500 nM in the test with Pa16c cells.

`Cc1ccc(NC(=O)c2cc(C(F)(F)F)cnn2)cc1-c1nc(OCCO)cc(N2CCOCC2)n1` [Example 43]: the IC50 in test [1] was 1000 to 10000 nM; in test [2] it was 1000 to 10000 nM; in the test on MiaPaca-2 cells it was less than 100 nM; in the test with HCT-116 cells, 100 to 500 nM; in the test with HPAF-II cells, less than 100 nM; with Pa16c cells, 100 to 500 nM.

As to `Cc1ccc(NC(=O)c2cc(C3CC3)cnn2)cc1-c1nc(N[C@H](C)CO)cc(N2CCOCC2)n1` [Example 45], the IC50 fell in the range of 1000 to 10000 nM in test [1]; 500 to 1000 nM in test [2]; 500 to 1000 nM in the test with MiaPaca-2 cells; 500 to 1000 nM in the test with HCT-116 cells; 500 to 1000 nM with HPAF-II cells; 1000 to 10000 nM in the test with Pa16c cells.

Turning to `Cc1ccc(NC(=O)c2cc(C3CC3)cnn2)cc1-c1cccc(N2CCOCC2)c1` [Example 46], the IC50 in test [1] is 100 to 500 nM; in test [2] it was less than 100 nM; with MiaPaca-2 cells, 500 to 1000 nM; in the test on HCT-116 cells it was 100 to 500 nM; in the test with HPAF-II cells, 100 to 500 nM; with Pa16c cells, 100 to 500 nM.

`Cc1ccc(NC(=O)c2cncc(C(F)(F)F)c2)cc1-c1cc(OCCO)nc(N2CCOCC2)c1` [Example 47]: the IC50 is less than 100 nM in test [1]; less than 100 nM in test [2]; 500 to 1000 nM in the test on MiaPaca-2 cells; 100 to 500 nM with HCT-116 cells; 500 to 1000 nM in the test with HPAF-II cells; 1000 to 10000 nM in the test with Pa16c cells.

Regarding `Cc1ccc(NC(=O)c2cc(C3CCC3)cnn2)cc1-c1cc(OCCO)nc(N2CCOCC2)c1` [Example 50], the IC50 (in test [1]; in test [2]; in the test on MiaPaca-2 cells; in the test with HCT-116 cells; with HPAF-II cells; in the test on Pa16c cells) was less than 100 nM throughout.

On to `Cc1ccc(NC(=O)c2cc(Cl)cnn2)cc1-c1ccnc(N2CCOCC2)c1` [Example 51], for which the IC50 in test [1] was in the range of 1000 to 10000 nM; in test [2], 500 to 1000 nM; in the test on MiaPaca-2 cells, 1000 to 10000 nM; with HCT-116 cells, 500 to 1000 nM; in the test on HPAF-II cells, 500 to 1000 nM; in the test with Pa16c cells, 1000 to 10000 nM.

Regarding `Cc1ccc(NC(=O)c2cc(C3CC3)cnn2)cc1-c1nccc(N2CCOCC2)n1` [Example 52], the IC50 (in test [1]; in test [2]; with MiaPaca-2 cells; in the test on HCT-116 cells; in the test on HPAF-II cells; in the test with Pa16c cells) was 1000 to 10000 nM throughout.

`C=C(C)c1cncc(C(=O)Nc2ccc(C)c(-c3cc(N[C@H](C)CO)nc(N4CCOCC4)c3)c2)n1` [Example 53]: the IC50 in test [1] is less than 100 nM; in test [2], less than 100 nM; in the test on MiaPaca-2 cells it was 1000 to 10000 nM; with HCT-116 cells it was 1000 to 10000 nM; in the test with HPAF-II cells, 1000 to 10000 nM; in the test on Pa16c cells it was 1000 to 10000 nM.

`Cc1ccc(NC(=O)c2cnc(C(C)C)nc2)cc1-c1cc(N[C@H](C)CO)nc(N2CCOCC2)c1` [Example 54]: the IC50 in test [1] was 100 to 500 nM; in test [2] it was less than 100 nM; in the test on MiaPaca-2 cells it was 1000 to 10000 nM; with HCT-116 cells, 1000 to 10000 nM; in the test on HPAF-II cells it was 1000 to 10000 nM; with Pa16c cells, 1000 to 10000 nM.

For `Cc1ccc(NC(=O)c2cc(C3CC3)cnn2)cc1-c1cncc(N2CCOCC2)n1` [Example 55], the IC50 in test [1] lay within 1000 to 10000 nM; in test [2], 500 to 1000 nM; in the test on MiaPaca-2 cells, 1000 to 10000 nM; in the test on HCT-116 cells it was 1000 to 10000 nM; in the test on HPAF-II cells, 1000 to 10000 nM; in the test with Pa16c cells, 1000 to 10000 nM.

For `Cc1ccc(NC(=O)c2cc(C(C)C)cnn2)cc1-c1cncc(N2CCOCC2)n1` [Example 56], the IC50 in test [1] lay in the range of 100 to 500 nM; in test [2], 100 to 500 nM; with MiaPaca-2 cells it was 1000 to 10000 nM; in the test with HCT-116 cells it was 1000 to 10000 nM; in the test with HPAF-II cells, 1000 to 10000 nM; in the test with Pa16c cells it was 1000 to 10000 nM.

Turning to `Cc1ccc(NC(=O)c2cncc(C(C)C)n2)cc1-c1cc(N[C@H](C)CO)nc(N2CCOCC2)c1` [Example 57, (R)—N-(3-(2-((1-hydroxypropan-2-yl)amino)-6-morpholinopyridin-4-yl)-4-methylphenyl)-6-isopropylpyrazine-2-carboxamide], the IC50 in test [1] was in the range of 100 to 500 nM; in test [2], 100 to 500 nM; in the test on MiaPaca-2 cells it was 1000 to 10000 nM; with HCT-116 cells, 1000 to 10000 nM; in the test with HPAF-II cells, 1000 to 10000 nM; in the test on Pa16c cells, 1000 to 10000 nM.
